Molecular target: human APJ receptor (Homo sapiens (Human), UniProt P35414)
Experiment: [35S]GTPγS binding assay on membranes from CHO cells stably expressing human APJ receptor
Assay type: biochemical
Conditions: read-out: Activity hAPJ SPA EC50 IP
Protocol: The human APJ receptor was cloned by polymerase chain reaction and the gene encoding the receptor was subcloned in pFLAG-CMV™-3 expression vector (Sigma, Saint Louis, Mo. USA) in-house at Amgen. A GTPγS binding assay was performed on membranes prepared from CHO cells stably expressing human APJ receptor. The optimum experimental conditions for the concentrations of GDP, MgCl2, and NaCl in the assay buffer were initially determined. The assay was performed in assay buffer [20 mM HEPES, pH 7.5, 5 mM MgCl2, and 0.1% (w/v) BSA with 200 mM NaCl, 3 μM GDP] and membranes expressing human APJ receptor/well along with WGA PS beads. The reaction was initiated by addition of 0.2 nM [^35S]GTPγS (Perkin Elmer Life and Analytical Sciences, Waltham USA) in the absence or presence of various ligands and incubated at RT for 90 min. Nonspecific binding was determined in the presence of 100 μM GTPγS and was always less than 0.2% of total binding. All the results presented are means of several independent experiments and analyzed by non-linear regression methods using commercially available program Prism (GraphPad, San Diego, Calif.) to obtain EC50 detailed in Table 38.

Chain of human APJ receptor (P35414 whole entry): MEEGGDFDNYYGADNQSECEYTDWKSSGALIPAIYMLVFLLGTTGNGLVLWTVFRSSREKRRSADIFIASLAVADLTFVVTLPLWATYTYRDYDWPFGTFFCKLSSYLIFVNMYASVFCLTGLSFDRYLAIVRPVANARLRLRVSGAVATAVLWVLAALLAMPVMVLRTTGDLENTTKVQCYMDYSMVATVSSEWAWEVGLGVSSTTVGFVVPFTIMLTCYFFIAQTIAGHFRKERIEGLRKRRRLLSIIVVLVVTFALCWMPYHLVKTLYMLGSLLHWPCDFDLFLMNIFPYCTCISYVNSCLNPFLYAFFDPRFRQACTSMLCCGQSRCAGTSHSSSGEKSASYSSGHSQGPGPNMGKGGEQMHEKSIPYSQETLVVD

SMILES	EC50 [µM]
COc1cccc(OC)c1-n1c(NS(=O)(=O)[C@@H](C)[C@H](C)c2ncc(Cl)cn2)nnc1[C@H]1OCC[C@H]1C (single isomer, unassigned) [Example 75.0, (2S,3R)-3-(5-chloropyrimidin-2-yl)-N-(4-(2,6-dimethoxyphenyl)-5-((2R,3S)-3-methyltetrahydrofuran-2-yl)-4H-1,2,4-triazol-3-yl)butane-2-sulfonamide or (2S,3R)-3-(5-chloropyrimidin-2-yl)-N-(4-(2,6-dimethoxyphenyl)-5-((2S,3R)-3-methyltetrahydrofuran-2-yl)-4H-1,2,4-triazol-3-yl)butane-2-sulfonamide]	0.21
COc1cccc(OC)c1-n1c(NS(=O)(=O)[C@@H](C)[C@H](C)c2ncc(Cl)cn2)nnc1[C@H]1OCC[C@H]1C (single isomer, unassigned) [Example 76.0, (2S,3R)-3-(5-chloropyrimidin-2-yl)-N-(4-(2,6-dimethoxyphenyl)-5-((2R,3S)-3-methyltetrahydrofuran-2-yl)-4H-1,2,4-triazol-3-yl)butane-2-sulfonamide or (2S,3R)-3-(5-chloropyrimidin-2-yl)-N-(4-(2,6-dimethoxyphenyl)-5-((2S,3R)-3-methyltetrahydrofuran-2-yl)-4H-1,2,4-triazol-3-yl)butane-2-sulfonamide]	0.0014
COc1ncnc(OC)c1-n1c(NS(=O)(=O)[C@@H](C)[C@H](OC)c2ncc(Cl)cn2)nnc1[C@H]1CCCO1 (single isomer, unassigned) [Example 79.0, (1R,2S)-1-(5-chloropyrimidin-2-yl)-N-(4-(4,6-dimethoxypyrimidin-5-yl)-5-((S)-tetrahydrofuran-2-yl)-4H-1,2,4-triazol-3-yl)-1-methoxypropane-2-sulfonamide or (1R,2S)-1-(5-chloropyrimidin-2-yl)-N-(4-(4,6-dimethoxypyrimidin-5-yl)-5-((R)-tetrahydrofuran-2-yl)-4H-1,2,4-triazol-3-yl)-1-methoxypropane-2-sulfonamide]	0.11
COc1ncnc(OC)c1-n1c(NS(=O)(=O)[C@@H](C)[C@H](C)c2ncc(Cl)cn2)nnc1[C@H]1CCCO1 (single isomer, unassigned) [Example 81.0, (2S,3R)-3-(5-chloropyrimidin-2-yl)-N-(4-(4,6-dimethoxypyrimidin-5-yl)-5-((S)-tetrahydrofuran-2-yl)-4H-1,2,4-triazol-3-yl)butane-2-sulfonamide or (2S,3R)-3-(5-chloropyrimidin-2-yl)-N-(4-(4,6-dimethoxypyrimidin-5-yl)-5-((R)-tetrahydrofuran-2-yl)-4H-1,2,4-triazol-3-yl)butane-2-sulfonamide]	0.082
COc1ncnc(OC)c1-n1c(NS(=O)(=O)[C@@H](C)[C@H](C)c2ncc(Cl)cn2)nnc1[C@H]1CCCO1 (single isomer, unassigned) [Example 82.0, (2S,3R)-3-(5-chloropyrimidin-2-yl)-N-(4-(4,6-dimethoxypyrimidin-5-yl)-5-((S)-tetrahydrofuran-2-yl)-4H-1,2,4-triazol-3-yl)butane-2-sulfonamide or (2S,3R)-3-(5-chloropyrimidin-2-yl)-N-(4-(4,6-dimethoxypyrimidin-5-yl)-5-((R)-tetrahydrofuran-2-yl)-4H-1,2,4-triazol-3-yl)butane-2-sulfonamide]	0.003
COc1cccc(OC)c1-n1c(NS(=O)(=O)[C@@H](C)[C@H](OC)c2ncc(Cl)cn2)nnc1[C@H]1CCCCO1 (single isomer, unassigned) [Example 83.0, (1R,2S)-1-(5-chloropyrimidin-2-yl)-N-(4-(2,6-dimethoxyphenyl)-5-((S)-tetrahydro-2H-pyran-2-yl)-4H-1,2,4-triazol-3-yl)-1-methoxypropane-2-sulfonamide or (1R,2S)-1-(5-chloropyrimidin-2-yl)-N-(4-(2,6-dimethoxyphenyl)-5-((R)-tetrahydro-2H-pyran-2-yl)-4H-1,2,4-triazol-3-yl)-1-methoxypropane-2-sulfonamide]	0.01

Source: patent US10150760B2, “Compounds for use in preparing heterocyclic triazole agonists of the APJ receptor” (AMGEN INC., priority 2016, dated 2018)
